Our source for the AC50, IC50 and EC50 values is ChEMBL document CHEMBL1201862, “PubChem BioAssay data set” (2004).

The source made the active and inactive calls. Where only a bound is given, the exact number is not on record here.

The target of test [1] is T1, Long-chain-fatty-acid--AMP ligase FadD28 (Mycobacterium tuberculosis, UniProt P9WQ59).
T1 sequence (P9WQ59 whole entry): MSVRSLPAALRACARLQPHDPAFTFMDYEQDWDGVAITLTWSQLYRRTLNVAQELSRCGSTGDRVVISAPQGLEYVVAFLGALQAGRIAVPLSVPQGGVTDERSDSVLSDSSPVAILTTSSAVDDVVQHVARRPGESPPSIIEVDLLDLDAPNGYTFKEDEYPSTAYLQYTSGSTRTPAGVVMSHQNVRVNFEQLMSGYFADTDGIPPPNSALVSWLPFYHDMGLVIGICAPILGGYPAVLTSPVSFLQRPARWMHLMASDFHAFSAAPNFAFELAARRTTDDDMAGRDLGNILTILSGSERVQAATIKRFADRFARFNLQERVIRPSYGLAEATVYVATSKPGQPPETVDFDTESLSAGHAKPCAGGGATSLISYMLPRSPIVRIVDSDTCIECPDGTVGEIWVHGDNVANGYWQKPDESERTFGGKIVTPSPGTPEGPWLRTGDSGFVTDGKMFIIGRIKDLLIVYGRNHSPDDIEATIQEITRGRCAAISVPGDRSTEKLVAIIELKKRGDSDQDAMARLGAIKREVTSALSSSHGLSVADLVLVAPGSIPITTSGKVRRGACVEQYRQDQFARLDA
Description: Fluorescence polarization aasay to screen for inhibitors that compete for the binding of FadD28 to a bisubstrate Measured in Biochemical System Using Plate Reader - 2147-01_Inhibitor_Dose_CherryPick_Activity. It is filed as functional, Mycobacterium tuberculosis H37Rv.

The next test has as its target T2, Cytochrome P450 1A2 (Homo sapiens, UniProt P05177).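 Note: PubChem cytochrome P450 panel assay, CYP1A2 panel member.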
T2 sequence (P05177 whole entry): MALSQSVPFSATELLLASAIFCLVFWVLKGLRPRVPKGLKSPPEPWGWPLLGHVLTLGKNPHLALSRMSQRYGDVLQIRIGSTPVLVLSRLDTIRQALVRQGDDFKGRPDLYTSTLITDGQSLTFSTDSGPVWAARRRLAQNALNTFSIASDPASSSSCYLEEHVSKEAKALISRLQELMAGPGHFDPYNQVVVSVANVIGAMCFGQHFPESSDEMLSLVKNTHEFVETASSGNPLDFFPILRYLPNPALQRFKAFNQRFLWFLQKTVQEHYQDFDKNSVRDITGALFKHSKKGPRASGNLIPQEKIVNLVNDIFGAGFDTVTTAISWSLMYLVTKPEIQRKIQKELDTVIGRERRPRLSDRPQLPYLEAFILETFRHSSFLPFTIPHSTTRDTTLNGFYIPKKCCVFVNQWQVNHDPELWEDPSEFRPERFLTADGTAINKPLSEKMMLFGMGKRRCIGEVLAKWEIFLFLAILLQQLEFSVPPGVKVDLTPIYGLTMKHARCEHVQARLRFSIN

The next test addresses Cytochrome P450 3A4 (Homo sapiens, UniProt P08684).
Test [2] has as its target Arf-GAP with SH3 domain, ANK repeat and PH domain-containing protein 1 (Homo sapiens, UniProt Q9ULH1). It is filed as functional.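 Note: biochemical fluorescence polarization dose–response screen measuring inhibition of ASAP1; ASAP1 GAP domain stimulating GTP hydrolysis by truncated human ARF1.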
The target of test [3] is T3, Methionyl-tRNA synthetase, putative (Trypanosoma brucei brucei, UniProt Q38C91).
T3 sequence (Q38C91 whole entry): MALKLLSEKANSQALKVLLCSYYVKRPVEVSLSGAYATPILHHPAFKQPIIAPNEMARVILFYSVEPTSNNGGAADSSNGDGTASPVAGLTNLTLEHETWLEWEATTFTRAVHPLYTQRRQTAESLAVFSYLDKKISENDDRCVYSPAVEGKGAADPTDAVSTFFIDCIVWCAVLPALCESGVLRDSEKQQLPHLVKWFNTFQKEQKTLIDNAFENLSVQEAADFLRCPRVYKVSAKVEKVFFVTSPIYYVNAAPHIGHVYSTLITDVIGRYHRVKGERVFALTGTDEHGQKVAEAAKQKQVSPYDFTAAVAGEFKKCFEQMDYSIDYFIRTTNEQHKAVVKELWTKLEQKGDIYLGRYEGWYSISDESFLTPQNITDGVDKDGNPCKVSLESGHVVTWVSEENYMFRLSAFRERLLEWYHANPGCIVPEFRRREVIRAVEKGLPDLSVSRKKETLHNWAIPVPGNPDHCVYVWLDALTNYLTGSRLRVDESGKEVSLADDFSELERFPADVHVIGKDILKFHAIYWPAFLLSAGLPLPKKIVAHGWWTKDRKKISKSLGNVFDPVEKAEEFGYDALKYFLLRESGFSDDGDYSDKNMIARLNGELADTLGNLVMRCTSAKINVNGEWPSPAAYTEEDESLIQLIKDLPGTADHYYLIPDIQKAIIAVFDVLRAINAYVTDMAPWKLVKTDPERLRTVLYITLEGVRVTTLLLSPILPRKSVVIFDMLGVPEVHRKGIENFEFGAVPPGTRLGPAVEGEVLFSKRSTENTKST
It is filed as functional, Trypanosoma brucei brucei strain 927/4 GUTat10.1.

Test [4] is described as follows: Counterscreen for inhibitors of Trypanosoma brucei methionyl tRNA synthetase (MetRS): Luminescence-based cell-based high throughput dose response assay to identify compounds that are cytotoxic to Jurkat human T lymphocyte cells. It is filed as functional.
For test [5], the target named is T3, Methionyl-tRNA synthetase, putative. It is filed as functional, Trypanosoma brucei brucei strain 927/4 GUTat10.1. This is another data set of the same source.
Test [6] in a line: cells. It is filed as functional, cell-based.
A short description of test [7]: cells. It is filed as functional, cell-based. This is another data set of the same source.
The target in a further test is T4, Estrogen receptor (Homo sapiens, UniProt P03372).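 Note: potency for inhibiting coactivator peptide recruitment to the receptor.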
T4 sequence (P03372 whole entry): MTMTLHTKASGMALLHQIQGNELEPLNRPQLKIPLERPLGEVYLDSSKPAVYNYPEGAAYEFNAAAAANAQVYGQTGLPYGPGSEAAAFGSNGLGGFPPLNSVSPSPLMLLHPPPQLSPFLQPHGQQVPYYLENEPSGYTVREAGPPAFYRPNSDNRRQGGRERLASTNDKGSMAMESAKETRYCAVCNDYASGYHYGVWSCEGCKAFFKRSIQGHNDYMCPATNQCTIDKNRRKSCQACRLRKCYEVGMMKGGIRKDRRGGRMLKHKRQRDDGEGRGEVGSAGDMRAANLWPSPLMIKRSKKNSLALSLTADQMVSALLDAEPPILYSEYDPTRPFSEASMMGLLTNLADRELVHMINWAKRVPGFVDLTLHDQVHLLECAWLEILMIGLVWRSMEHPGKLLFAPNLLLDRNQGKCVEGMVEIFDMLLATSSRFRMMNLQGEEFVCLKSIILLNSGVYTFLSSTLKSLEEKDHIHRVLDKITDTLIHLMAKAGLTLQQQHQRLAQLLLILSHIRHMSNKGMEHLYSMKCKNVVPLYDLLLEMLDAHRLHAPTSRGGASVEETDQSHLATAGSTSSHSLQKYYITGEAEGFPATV

Test [8] has as its target DNA dC->dU-editing enzyme APOBEC-3A (Homo sapiens, UniProt P31941). Description: Dose Response confirmation of small molecule APOBEC3A DNA Deaminase Inhibitors via a fluorescence-based single-stranded DNA deaminase assay. [Related pubchem assays (depositor defined):AID493011, AID493024]. It is filed as functional.
For test [9], the target named is DNA dC->dU-editing enzyme APOBEC-3G (Homo sapiens, UniProt Q9HC16). It is filed as functional.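 Note: Dose-response counterscreen measuring inhibition of APOBEC3G DNA deaminase activity, run while confirming APOBEC3A inhibitors.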
For a further test, the target named is Nonstructural protein 1 (Influenza A virus, UniProt Q194T2). It is filed as functional, Influenza A virus (A/California/07/2009(H1N1)).
Test [10] deals with T5, Carboxy-terminal domain RNA polymerase II polypeptide A small phosphatase 1 (Homo sapiens, UniProt Q9GZU7).
T5 sequence (Q9GZU7 whole entry): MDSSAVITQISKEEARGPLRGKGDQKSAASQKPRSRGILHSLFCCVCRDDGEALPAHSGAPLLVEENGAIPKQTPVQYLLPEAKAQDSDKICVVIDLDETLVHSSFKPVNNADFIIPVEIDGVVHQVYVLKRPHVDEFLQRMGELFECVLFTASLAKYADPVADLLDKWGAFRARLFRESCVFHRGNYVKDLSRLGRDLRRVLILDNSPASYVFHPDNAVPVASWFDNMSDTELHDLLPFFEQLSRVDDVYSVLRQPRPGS
Nature of the test: CTDSP1 inhibitors, concentration-response, biochemical, absorbance readout, ultra-high-throughput screen actives (AID 540297). It is filed as functional.

The target in test [11] is Induced myeloid leukemia cell differentiation protein Mcl-1 (Homo sapiens, UniProt Q07820). It is filed as functional.
For test [12], the target named is T6, Heat shock factor protein 1 (Mus musculus, UniProt P38532).
T6 sequence (P38532 whole entry): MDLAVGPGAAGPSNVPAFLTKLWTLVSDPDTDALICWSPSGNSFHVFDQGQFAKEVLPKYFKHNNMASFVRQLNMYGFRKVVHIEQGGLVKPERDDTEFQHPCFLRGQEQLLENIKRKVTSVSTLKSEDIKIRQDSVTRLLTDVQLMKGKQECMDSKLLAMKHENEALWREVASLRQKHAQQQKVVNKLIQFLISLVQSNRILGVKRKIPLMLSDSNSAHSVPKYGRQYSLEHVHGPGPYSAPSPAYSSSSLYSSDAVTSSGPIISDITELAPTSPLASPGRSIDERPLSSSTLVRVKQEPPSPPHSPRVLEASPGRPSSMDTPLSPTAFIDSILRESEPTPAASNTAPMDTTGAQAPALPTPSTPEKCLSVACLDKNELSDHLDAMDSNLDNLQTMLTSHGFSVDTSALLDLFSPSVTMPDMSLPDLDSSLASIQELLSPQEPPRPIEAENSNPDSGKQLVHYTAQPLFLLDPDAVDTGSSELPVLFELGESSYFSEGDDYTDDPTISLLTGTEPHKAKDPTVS
Nature of the test: decrease of HSF1-responsive luciferase luminescence – cell-based, NIH3T3, dose retest, confirmation (AID 2382).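 Note: NIH3T3 fibroblasts with HSF1-driven luciferase reporter stressed by proteasome inhibitor MG132; luminescence from HSF1-driven luciferase expression after 8 hours of MG132 stress.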 It is filed as functional.

Test [13] is described as follows: Trypanosoma cruzi growth suppression in host cells – NIH3T3 host cells, beta-gal luminescence, confirmation (AID 2044).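 Note: intracellular parasites grown in NIH/3T3 mouse fibroblasts as host cells; luminescent beta-galactosidase reporter signal from transgenic T. cruzi replicating inside host cells; inhibitors lower the luminescence signal.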 It is filed as functional, cell-based.
The nature of test [14]: NIH3T3 cell viability loss – ATP luminescence, mouse fibroblasts, counter-screen, dose response (AID 2010).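 Note: cells exposed to compound for about 90 hours before reading.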 It is filed as functional, cell-based.
The target in test [15] is Eukaryotic translation initiation factor 4E (Mus musculus, UniProt P63073). Nature of the test: blockers of eIF4G binding by eIF4E – biochemical, TR-FRET, dose response (AID 855).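 Note: potency for disrupting eIF4E binding to eIF4GI seen as loss of FRET.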 It is filed as functional.
Eukaryotic translation initiation factor 4E, sequence (P63073 whole entry): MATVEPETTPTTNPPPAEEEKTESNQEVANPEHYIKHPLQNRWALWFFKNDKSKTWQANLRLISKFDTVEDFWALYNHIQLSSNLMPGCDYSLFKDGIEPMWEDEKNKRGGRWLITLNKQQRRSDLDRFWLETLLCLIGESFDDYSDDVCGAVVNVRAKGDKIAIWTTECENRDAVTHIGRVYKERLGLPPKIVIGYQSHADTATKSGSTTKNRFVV

DNA dC->dU-editing enzyme APOBEC-3A, sequence (P31941 whole entry): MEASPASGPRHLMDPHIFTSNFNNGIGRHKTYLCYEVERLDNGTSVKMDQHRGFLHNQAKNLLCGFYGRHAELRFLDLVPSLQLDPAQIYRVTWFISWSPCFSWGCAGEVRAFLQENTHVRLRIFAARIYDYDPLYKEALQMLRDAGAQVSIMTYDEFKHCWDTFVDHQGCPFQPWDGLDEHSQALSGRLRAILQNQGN
Induced myeloid leukemia cell differentiation protein Mcl-1, sequence (Q07820 whole entry): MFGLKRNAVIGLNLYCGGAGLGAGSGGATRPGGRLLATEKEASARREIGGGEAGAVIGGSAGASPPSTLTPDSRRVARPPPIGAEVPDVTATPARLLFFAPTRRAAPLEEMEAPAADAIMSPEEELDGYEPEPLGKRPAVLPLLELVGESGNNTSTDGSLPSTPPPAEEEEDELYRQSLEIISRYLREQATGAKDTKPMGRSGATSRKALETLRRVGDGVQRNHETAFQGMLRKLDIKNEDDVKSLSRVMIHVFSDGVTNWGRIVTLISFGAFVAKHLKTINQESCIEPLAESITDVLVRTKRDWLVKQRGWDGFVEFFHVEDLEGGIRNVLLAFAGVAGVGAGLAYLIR
DNA dC->dU-editing enzyme APOBEC-3G, sequence (Q9HC16 whole entry): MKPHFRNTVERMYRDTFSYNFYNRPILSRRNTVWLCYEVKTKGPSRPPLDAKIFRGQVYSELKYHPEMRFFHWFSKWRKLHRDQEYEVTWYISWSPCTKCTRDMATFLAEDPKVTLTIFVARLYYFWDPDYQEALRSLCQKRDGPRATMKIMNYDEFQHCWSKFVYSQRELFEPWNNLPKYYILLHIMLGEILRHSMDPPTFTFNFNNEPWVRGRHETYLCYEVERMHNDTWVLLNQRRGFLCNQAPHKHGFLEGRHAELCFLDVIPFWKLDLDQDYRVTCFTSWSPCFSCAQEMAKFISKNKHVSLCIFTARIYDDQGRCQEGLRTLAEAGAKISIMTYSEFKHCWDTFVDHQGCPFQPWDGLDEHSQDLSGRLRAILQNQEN
Arf-GAP with SH3 domain, ANK repeat and PH domain-containing protein 1, sequence (Q9ULH1 whole entry, the tested form may be a part): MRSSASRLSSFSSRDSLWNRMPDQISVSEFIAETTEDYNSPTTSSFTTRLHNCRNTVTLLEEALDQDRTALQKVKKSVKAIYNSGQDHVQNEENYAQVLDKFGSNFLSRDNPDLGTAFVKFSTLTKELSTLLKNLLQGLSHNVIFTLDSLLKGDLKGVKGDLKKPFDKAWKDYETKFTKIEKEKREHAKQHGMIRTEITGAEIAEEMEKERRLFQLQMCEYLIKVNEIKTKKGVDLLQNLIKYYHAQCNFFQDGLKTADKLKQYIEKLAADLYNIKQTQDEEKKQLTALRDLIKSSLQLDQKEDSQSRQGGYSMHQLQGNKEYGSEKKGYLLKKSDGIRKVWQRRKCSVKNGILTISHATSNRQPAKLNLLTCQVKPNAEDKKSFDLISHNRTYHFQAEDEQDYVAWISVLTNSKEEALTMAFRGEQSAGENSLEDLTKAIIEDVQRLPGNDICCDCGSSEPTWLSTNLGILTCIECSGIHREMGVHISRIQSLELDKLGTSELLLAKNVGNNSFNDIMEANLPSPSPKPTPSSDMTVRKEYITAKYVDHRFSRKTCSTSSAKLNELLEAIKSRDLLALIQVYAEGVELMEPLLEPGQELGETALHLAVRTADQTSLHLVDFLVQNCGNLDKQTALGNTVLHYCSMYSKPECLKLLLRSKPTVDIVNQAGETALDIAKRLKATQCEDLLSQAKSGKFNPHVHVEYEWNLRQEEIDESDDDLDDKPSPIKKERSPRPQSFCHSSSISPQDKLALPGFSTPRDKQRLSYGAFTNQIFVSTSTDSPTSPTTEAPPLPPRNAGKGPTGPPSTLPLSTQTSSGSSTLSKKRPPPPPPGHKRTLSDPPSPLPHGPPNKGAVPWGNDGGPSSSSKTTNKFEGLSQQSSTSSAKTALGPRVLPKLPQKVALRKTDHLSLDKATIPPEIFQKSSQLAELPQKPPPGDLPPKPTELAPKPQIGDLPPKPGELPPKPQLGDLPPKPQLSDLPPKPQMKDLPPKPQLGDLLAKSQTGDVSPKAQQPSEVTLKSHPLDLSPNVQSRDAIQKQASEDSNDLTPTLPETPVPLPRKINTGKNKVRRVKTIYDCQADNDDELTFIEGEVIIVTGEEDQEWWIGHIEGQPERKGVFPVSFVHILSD
Nonstructural protein 1, sequence (Q194T2 whole entry, the tested form may be a part): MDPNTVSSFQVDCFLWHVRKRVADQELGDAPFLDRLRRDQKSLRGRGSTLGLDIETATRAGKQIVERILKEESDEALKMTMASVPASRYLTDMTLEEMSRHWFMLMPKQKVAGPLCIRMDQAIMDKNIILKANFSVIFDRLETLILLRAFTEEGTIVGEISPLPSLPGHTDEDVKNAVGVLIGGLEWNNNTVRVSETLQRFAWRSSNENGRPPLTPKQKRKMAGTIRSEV
Cytochrome P450 3A4, sequence (P08684 whole entry, the tested form may be a part): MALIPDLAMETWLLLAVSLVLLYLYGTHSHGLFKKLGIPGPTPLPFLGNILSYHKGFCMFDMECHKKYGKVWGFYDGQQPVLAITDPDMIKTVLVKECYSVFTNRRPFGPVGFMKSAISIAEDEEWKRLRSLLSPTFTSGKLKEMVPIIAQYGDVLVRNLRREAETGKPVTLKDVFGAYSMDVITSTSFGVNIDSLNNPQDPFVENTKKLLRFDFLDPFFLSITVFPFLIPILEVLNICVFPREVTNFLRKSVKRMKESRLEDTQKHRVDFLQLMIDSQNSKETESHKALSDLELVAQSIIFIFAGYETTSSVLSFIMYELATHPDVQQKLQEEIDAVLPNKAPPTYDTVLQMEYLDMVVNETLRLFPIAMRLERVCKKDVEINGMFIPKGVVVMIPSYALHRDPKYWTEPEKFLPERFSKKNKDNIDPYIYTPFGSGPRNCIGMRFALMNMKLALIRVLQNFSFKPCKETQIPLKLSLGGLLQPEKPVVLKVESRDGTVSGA

With `CCOC(=O)C1CCCN(C(=O)c2cc(Nc3ccc(OC)cc3)nc3ccccc23)C1` (centres undefined), the AC50 in test [1] was 30.5 µM (active).

Consider `CCOc1ccc(C(=O)Nc2cccc(-c3cc4ccccc4oc3=O)c2)cc1[N+](=O)[O-]`, for which the AC50 is 5.62 µM (inconclusive) on Cytochrome P450 1A2 and 10 µM (inconclusive) at Cytochrome P450 3A4. The IC50 in test [2] was 37.9 µM (inactive).

Regarding `O=C(Cc1ccc(Cl)c(Cl)c1)Nc1cccc(S(=O)(=O)N2CCOCC2)c1`, the half-inhibitory concentration (IC50) in test [3] was 7.78 µM (active); in [4], 34.8 µM (inactive); in test [5], 4.48 µM (active).

As to `Oc1c(C(c2ccc(F)cc2)N2CCc3ccccc3C2)sc2ncnn12` (centres undefined), the EC50 in the test “cells [6]” is > 29.9 µM (inactive). For the same compound, the IC50 in “cells [7]” is > 29.9 µM (inactive).

On to `Cc1ccc(Nc2nnc(SCC(=O)NCc3ccco3)s2)cc1`, for which the half-inhibitory concentration (IC50) on Estrogen receptor is 28.8 µM (active).

Consider `CCN1C(NCC2CC2)=N[C@@H](c2cccc(C(F)(F)F)c2)C(C(=O)OC)=C1C`, for which the concentration for half-maximal inhibition (IC50) in [8] is 4.22 µM (active); in [9] it was 6.71 µM (active).

As for `COc1ccc(N2CC(C(=O)N/N=C/c3cc([N+](=O)[O-])ccc3O)CC2=O)cc1` (centres undefined), the half-maximal inhibitory concentration (IC50) on Nonstructural protein 1 was 17.8 µM (active).

Turning to `Clc1ccc(Cn2cc(/C=N/n3cnnc3)c3ccccc32)c(Cl)c1`, in [2], the IC50 is 12.9 µM (inactive).

In the case of `CCc1ccc2[nH]c(=O)c(CN(Cc3ccc4c(c3)OCO4)C(=O)c3ccco3)cc2c1`, at Estrogen receptor, the IC50 is 26.2 µM (active).

With `Cn1nc(C(F)(F)F)c(-c2cccc(C(F)(F)F)c2)c1NC(=O)Nc1ccc(F)cc1`, the IC50 is 119 µM (inactive) in test [3], 28.9 µM (inactive) in test [4] and 10.4 µM (inactive) in test [5].

In the case of `COc1ccccc1/C=c1\sc2nc(-c3ccco3)nn2c1=O`, the IC50 was 5 µM (active) in test [10], 17.5 µM (active) at Estrogen receptor and 7.38 µM (active) in test [11].

Take `CCOc1ccc2c(c1)[N+](C)(C)C(C)(C)C=C2C`: the half-inhibitory concentration (IC50) in test [8] is 2.96 µM (active); in test [9] it was 3.2 µM (active). Moreover, the EC50 in test [12] is > 195 µM (not active).

With `COc1cc(/C=C(/C#N)C(=O)NCCCc2ccccc2)ccc1OCC(=O)O`, the IC50 is 1.61 µM (active) in [8] and 3.23 µM (active) in test [9].

On to `OC(c1cc(Cl)cc(Cl)c1)c1nc(-c2cccc(F)c2)c[nH]1` (centres undefined), for which the IC50 in test [3] is 10.6 µM (inactive); in [4], 83.3 µM (inactive); in test [5], 7.94 µM (active).

Take `N#C/C(=C\C1=C(N2CCOCC2)C(=C\c2ccccc2)/CC1)C(=O)Nc1ccccc1F`: on Nonstructural protein 1, the IC50 is 13.3 µM (active). The EC50 in test [13] was 1.01 µM (active); in test [14] it was > 60 µM (not active).

For `CC(=O)NCCOC(=O)Nc1ccncc1`, the IC50 at Estrogen receptor is on record as > 50 µM (not active).

Consider `CCOC(=O)C1=C(Nc2ccc(OC)cc2)S/C(=C\c2cc(OC)c(O)c(OC)c2)C1=O`, for which the concentration for half-maximal inhibition (IC50) in [11] is 4.24 µM (not active).

In the case of `Cc1ccc(CNC(=O)c2ccc(-n3cccc3)cc2)cc1`, the IC50 in test [15] was 50 µM (inactive); in test [11], 3.27 µM (active).

Take `O=C(COc1cccc(-n2cnnn2)c1)Nc1ccccc1`: the values for the IC50 in [3], in [4] and in test [5] were 76 µM (inactive), 83.3 µM (inactive) and 38.2 µM (inactive), respectively.
